# Measurements from patent publication US8703825B2, “Compounds, use thereof as medicaments, and method of preparation thereof” (Universite de Lorraine, priority 2008, dated 2014).
# Where two headings read alike, the source gives them in different places.
# Columns and labels:
# Format in all cases: cell-based
# [1] = system: E. faecalis resistant to teicoplanin and to vancomycin (vanA gene) (EfR2); test: MIC by microdilution, clinical isolate; conditions: Enterococcus faecalis
# Method: (§1) The study also included 5 clinical isolates, obtained from rectal samples and/or from haemoculture: • […] E. coli (EcR1), • methicillin-resistant S. aureus (mecA gene) (SaR1), • vancomycin-resistant E. faecium (vanB gene) (EfR1), • E. faecalis resistant to teicoplanin and to vancomycin (vanA gene) (EfR2), and • P. aeruginosa overexpressing an efflux pump (PaRl).
# (§2) The isolates were selected on the basis of their resistance profile. The resistance profiles were determined on VITEK2 (BioMérieux, France).
# (§3) The bacteria are cultivated either on Mueller-Hinton agar (Difco, 225250), or in Mueller-Hinton broth (Difco, 275730), at 35° C. [Grare M, Mourer M, Fontanay S, Regnouf-de-Vains J B, Finance C, Duval R E. In vitro activity of para-guanidinoethylcalix[4]arene against susceptible and antibiotic-resistant Gram-negative and Gram-positive bacteria. J. Antimicrob Chemother. 2007; 60: 575-81].
# (§4) The various molecules tested were prepared in the form of aqueous solution at 10^−2 mol/L. The solutions used for the biological tests are freshly prepared, and stored for a week at most, at 4° C. The solutions are filtered through a filter with pores of 0.22 μm (Millex®GP; 0.22 μm; Millipore; France) before each test.
# (§5) Procedure for determining the Minimum Inhibitory Concentration (MIC)
# (§6) The minimum inhibitory concentrations (MIC) were determined by the standardized method of microdilution in liquid medium (96-well microplate, U-shaped bottom, Greiner), in Mueller-Hinton broth, with a final inoculum of 10^5-10^6 CFU/mL, depending on the bacterial species, in accordance with the recommendations of the CLSI.
# (§7) For the determination of MIC, bacterial suspensions are prepared from an isolated colony, taken from a Mueller-Hinton agar, taken up in 5 mL of Mueller-Hinton broth. After 24 h of growth, the bacterial suspensions are diluted in sterile distilled water in order to obtain an inoculum of 10^5-10^6 CFU/mL. The purity of the bacterial suspensions is tested by isolation on agar and Gram staining.
# (§8) The results are the mean value of 4 independent experiments.
# [2] = system: MRSA (mecA gene), methicillin-resistant S. aureus (SaR1); test: MIC by microdilution, clinical isolate; conditions: Staphylococcus aureus
# Method: as §1, §2, §3, §4, §5, §6, §7, §8
# [3] = system: P. aeruginosa overexpressing an efflux pump (PaR1); test: MIC by microdilution, clinical isolate; conditions: Pseudomonas aeruginosa
# Method: as §1, §2, §3, §4, §5, §6, §7, §8
# [4] = system: penicillinase-producing E. coli (EcR1); test: MIC by microdilution, clinical isolate; conditions: Escherichia coli
# Method: as §1, §2, §3, §4, §5, §6, §7, §8
# [5] = system: vancomycin-resistant E. faecium (vanB gene) (EfR1); test: MIC by microdilution, clinical isolate; conditions: Enterococcus faecium
# Method: as §1, §2, §3, §4, §5, §6, §7, §8
# [6] = system: HaCaT cells (human keratinocytes); test: Cellular viability test (MTT test); conditions: read-out: IC50 viability test (with MTT)
# Excerpt: (§9) The eukaryotic cells used in our study are HaCaT cells (human keratinocytes), which were kindly supplied by the Pierre Fabre Institute (Toulouse, France); and MRC-5 cells (human embryonic fibroblasts), which were obtained from the company BioMérieux (Lyons, France). These cells are cultivated in DMEM (“Dulbecco's modified Eagle's medium”, Invitrogen 61965) for the HaCaT cells, and MEM (“modified Eagle's medium”, Invitrogen 41090); 10% of fetal calf serum (FCS, Invitrogen, 10270, Batch 40Q5150K) in a humid chamber at 37° C., under 5% CO2. The HaCaT and MRC-5 cells were seeded at 10^4 cells/well in 96-well plates (Sarstedt 831835). After 48 h of growth, the culture medium is withdrawn and replaced with the various “test” solutions (volume=100 μL). After contact time of 24, 48 and/or 168 H,the viability or cytotoxicity tests are carried out.
# (§10) a) Cellular Viability Tests (MTT Test)
# (§11) In order to evaluate the effect of the various compounds tested on the viability of HaCaT and MRC-5 cells, the MTT technique (3-[4,5-dimethylthiazol-2-yl]-2,5-diphenyltetrazolium bromide; MTT, Aldrich, 135038), described by Mosmann [Mosmann T. Rapid colorimetric assay for cellular growth and survival: application to proliferation and cytotoxicity assays. J Immunol Methods. 1983; 65: 55-63] and modified by Grare et al. [Grare M, Mourer M, Fontanay S, Regnouf-de-Vains J B, Finance C, Duval R E. In vitro activity of para-guanidinoethylcalix[4]arene against susceptible and antibiotic-resistant Gram-negative and Gram-positive bacteria. J Antimicrob Chemother. 2007; 60: 575-81], was used.
# (§12) It is based on the reduction of yellow tetrazolium salts to purple crystals of formazan, mainly by mitochondrial dehydrogenases. The quantity of formazan formed is proportional to the number of live cells. After the contact times of 24, 48 and/or 168 h with the different concentrations of the test molecules, 10 nI, of MTT (at 5 mg/mL) is added to each well and the plates are placed at 37° C. After incubation for 4 H,the insoluble crystals of formazan that have formed are dissolved by adding 100 μL SDS to each well. The absorbance is measured at 540 nm with a reference wavelength at 690 nm, using an ELISA plate reader (Multiskan E X, Thermo Electron Corporation, France). The results are the mean of the values obtained for 8 wells per concentration and per unit time. Each experiment was carried out 3 times.
# [7] = system: MRC-5 cells (human embryonic fibroblasts); test: Cellular viability test (MTT test); conditions: read-out: IC50 viability test (with MTT)
# Excerpt: as §9, §10, §11, §12
# [8] = clinical isolate, E. faecalis (vanA gene), read-out: MIC
# [9] = clinical isolate, MRSA (mecA gene), read-out: MIC
# [10] = clinical isolate, penicillinase-producing E. coli, read-out: MIC
# [11] = clinical isolate, E. faecium (vanB gene), read-out: MIC
SMILES,"MIC [1, 8] [µg/mL]","MIC [2, 9] [µg/mL]",MIC [3] [µg/mL],"MIC [4, 10] [µg/mL]","MIC [5, 11] [µg/mL]",IC50 ([6]; 24 h) [µg/mL],IC50 ([6]; 48 h) [µg/mL],IC50 ([6]; 168 h) [µg/mL],"IC50 ([7]; MRC5, MRC-5, 24 h) [µg/mL]","IC50 ([7]; MRC5, MRC-5, 48 h) [µg/mL]","IC50 ([7]; MRC5, MRC-5, 168 h) [µg/mL]",MIC [1] [µg/mL],MIC ([2]; MRSA) [µg/mL],MIC [4] [µg/mL],MIC [5] [µg/mL],"IC50 ([7]; MRC5, 24 h) [µg/mL]","IC50 ([7]; MRC5, 48 h) [µg/mL]","IC50 ([7]; MRC5, 168 h) [µg/mL]"
"[H]/N=C(\N/C(=N/[H])NCCCCCCNC(=N)NC(=N)Nc1ccc(Cl)cc1)Nc1ccc(Cl)cc1 [CHX, chlorhexidine]",2,0.5,8,0.5,1,8 to 16,4 to 8,2 to 4,16 to 32,8 to 16,1 to 2,–,–,–,–,–,–,–
"N=C(N)c1ccc(OCCCCCCOc2ccc(C(=N)N)cc2)cc1 [HX, hexamidine]",–,–,64,–,–,32 to 64,16 to 32,4 to 8,–,–,–,4,2,8,2,32 to 64,16 to 32,4 to 8
"N=C(N)NCCc1ccc(OCCCCCCOc2ccc(CCNC(=N)N)cc2)cc1 [compound 6, 1,6-bis(4-(2-guanidinoethyl)phenoxy)hexane]",16,< 1,32,4,8,4 to 8,4 to 8,1 to 2,8 to 16,4 to 8,0.5 to 1,–,–,–,–,–,–,–
